{"source": "paper PMC11053447", "about": "“Human ABC and SLC Transporters: The Culprit Responsible for Unspecific PSMA-617 Uptake?” (Pharmaceuticals, 2024)", "key": {"human OCT3": {"biological_target": "T1, human OCT3 (Homo sapiens, UniProt O75751)", "T1 construct": "host or cells: HEK293-OCT3-LV", "T1 sequence (O75751 1-556)": "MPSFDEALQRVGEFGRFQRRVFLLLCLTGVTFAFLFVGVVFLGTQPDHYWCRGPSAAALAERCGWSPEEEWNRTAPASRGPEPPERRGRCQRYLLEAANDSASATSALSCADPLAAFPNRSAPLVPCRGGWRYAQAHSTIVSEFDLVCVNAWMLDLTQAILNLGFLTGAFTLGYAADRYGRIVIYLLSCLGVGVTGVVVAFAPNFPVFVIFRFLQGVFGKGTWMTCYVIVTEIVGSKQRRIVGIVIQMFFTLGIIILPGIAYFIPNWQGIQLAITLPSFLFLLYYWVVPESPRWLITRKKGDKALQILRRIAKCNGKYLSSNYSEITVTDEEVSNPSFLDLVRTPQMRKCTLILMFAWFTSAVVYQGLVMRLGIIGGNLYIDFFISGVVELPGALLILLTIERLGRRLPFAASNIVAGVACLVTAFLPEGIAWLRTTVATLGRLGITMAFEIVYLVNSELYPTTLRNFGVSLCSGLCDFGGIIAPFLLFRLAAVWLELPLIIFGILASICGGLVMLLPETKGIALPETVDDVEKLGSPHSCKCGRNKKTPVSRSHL", "test": "SLC transporter substrate assay, HEK293-OCT3-LV vs control HEK293-Mock-LV cells", "format": "in vitro ADME", "conditions": "3 min", "method": "(§1) SI4. Results of transporter substrate assays (SLC)\n(§2) Human Incubation Positive control substrate/ Control Special Incubation Assay […]\n(Cell line) at 37°C [min] [h] […]\ninto transfected and control cells.\n(§3) Fold accumulation = UPTTRP\n(§4) PSMA-617 in SLC transporters.\n(§5) NA: not analyzed. Test substances were considered as substrates in case of fold accumulation values > 2 combined with inhibition values higher than 50%.\n4.7 Organic cation transporter OCT3\n(HEK293-OCT3-LV) and control cells (HEK293-Mock-LV) applying 2- and 20-minute incubation periods, measured in SLC transporter substrate assay. […] Concentrations are nominal.\nTable S16: ([α,β-3H]Nal)Lu-PSMA-617-accumulation in OCT3 transporter-expressing (HEK293-OCT3-LV) and control […]\n(§6) Conditions Accumulation (pmol/mg protein)\nCompound Nominal In OCT3 Fold concentration Minutes transporter In control Active accumulation\n(§7) [µM] expressing cells transport\n(§8) Positive control (accumulation in cpm)\nMPP +: 1-methyl -4-phenylpyridinium."}, "human OAT1": {"biological_target": "T2, human OAT1 (Homo sapiens, UniProt Q4U2R8)", "T2 sequence (Q4U2R8 1-563)": "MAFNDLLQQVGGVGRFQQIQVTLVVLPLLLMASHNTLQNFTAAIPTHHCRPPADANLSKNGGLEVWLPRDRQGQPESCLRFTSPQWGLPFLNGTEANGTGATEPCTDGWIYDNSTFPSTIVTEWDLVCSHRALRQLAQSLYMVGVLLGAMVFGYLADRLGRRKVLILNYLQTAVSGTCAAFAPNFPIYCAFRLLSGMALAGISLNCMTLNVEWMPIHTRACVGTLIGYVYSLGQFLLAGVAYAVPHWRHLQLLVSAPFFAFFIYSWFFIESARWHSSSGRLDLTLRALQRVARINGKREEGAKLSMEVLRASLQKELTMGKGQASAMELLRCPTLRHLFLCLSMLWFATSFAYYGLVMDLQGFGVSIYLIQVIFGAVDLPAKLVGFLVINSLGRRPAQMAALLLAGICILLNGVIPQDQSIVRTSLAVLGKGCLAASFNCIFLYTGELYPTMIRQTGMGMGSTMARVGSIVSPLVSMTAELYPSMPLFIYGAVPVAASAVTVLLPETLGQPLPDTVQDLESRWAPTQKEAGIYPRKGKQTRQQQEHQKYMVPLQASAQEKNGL", "test": "SLC transporter substrate assay, HEK293-OAT1-LV vs control HEK293-Mock-B-LV cells", "conditions": "2 min"}, "human OAT2v1": {"biological_target": "T3, human OAT2v1 (Homo sapiens, UniProt Q9Y694)", "T3 construct": "host or cells: HEK293-OAT2v1-LV", "T3 sequence (Q9Y694 1-546 isoform Q9Y694-2)": "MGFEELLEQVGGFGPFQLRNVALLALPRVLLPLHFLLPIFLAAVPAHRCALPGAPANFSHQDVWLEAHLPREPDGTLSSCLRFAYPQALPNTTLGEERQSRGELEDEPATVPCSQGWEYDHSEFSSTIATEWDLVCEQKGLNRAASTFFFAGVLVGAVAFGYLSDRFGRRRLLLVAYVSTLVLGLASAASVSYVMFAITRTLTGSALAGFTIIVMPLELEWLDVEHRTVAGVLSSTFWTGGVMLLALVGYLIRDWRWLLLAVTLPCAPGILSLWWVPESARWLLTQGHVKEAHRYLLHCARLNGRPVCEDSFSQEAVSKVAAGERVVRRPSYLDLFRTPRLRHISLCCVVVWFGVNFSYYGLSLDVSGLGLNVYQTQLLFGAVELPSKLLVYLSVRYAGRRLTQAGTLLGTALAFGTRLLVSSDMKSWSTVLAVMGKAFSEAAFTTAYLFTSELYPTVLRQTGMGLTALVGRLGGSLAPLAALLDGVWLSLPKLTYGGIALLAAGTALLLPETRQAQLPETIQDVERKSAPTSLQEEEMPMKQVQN", "test": "SLC transporter substrate assay, HEK293-OAT2v1-LV vs control HEK293-Mock-LV cells", "format": "in vitro ADME", "conditions": "1 min", "method": "as §1, §2\n(Cell line) at 37°C [min] [h]\nOAT2v1 cGMP (1.5) / Mock-B- Poly-D-lysine\nas §3, §4, §5\n4.4 Organic anion transporter OAT2v1 […]\nexpressed as mean (n=3) ± SD. Concentrations are nominal.\nTable S13: ([α,β-3H]Nal)Lu-PSMA-617-accumulation in OAT2v1 transporter expressing (HEK293-OAT2v1-LV) and […]\nas §6\nCompound Nominal In OAT2v1 Fold concentration Minutes transporter In control Active accumulation\nas §7, §8"}, "[1]": {"conditions": "positive control: MPP+ 0.02 µM + Quinidine 1000 µM"}, "[2]": {"conditions": "positive control: Tenofovir 5 µM + Probenecid 300 µM"}, "[3]": {"conditions": "positive control: Tenofovir 5 µM"}, "[4]": {"conditions": "positive control: cGMP 1.82 µM + Indomethacin 300 µM"}}}
{"smiles": "C[n+]1ccc(-c2ccccc2)cc1", "note": "[MPP+, 1-Methyl-4-phenylpyridin-1-ium, reference compound]", "values": [{"measurement": "Accumulation in OCT3 transporter expressing cells", "setting": "human OCT3; [1]", "value": 1429.667, "unit": "cpm"}, {"measurement": "Accumulation in control cells", "setting": "human OCT3; [1]", "value": 233.000, "unit": "cpm"}, {"measurement": "Accumulation, active transport", "setting": "human OCT3; [1]", "value": 1196.667, "unit": "cpm"}, {"measurement": "Fold accumulation", "setting": "human OCT3; [1]", "value": 6.14}, {"measurement": "Accumulation in OCT3 transporter expressing cells", "setting": "human OCT3; positive control: MPP+ 0.02 µM", "value": 10728.333, "unit": "cpm"}, {"measurement": "Accumulation in control cells", "setting": "human OCT3; positive control: MPP+ 0.02 µM", "value": 629.333, "unit": "cpm"}, {"measurement": "Accumulation, active transport", "setting": "human OCT3; positive control: MPP+ 0.02 µM", "value": 10099.000, "unit": "cpm"}, {"measurement": "Fold accumulation", "setting": "human OCT3; positive control: MPP+ 0.02 µM", "value": 17.05}]}
{"smiles": "C[C@H](Cn1cnc2c(N)ncnc21)OCP(=O)(O)O", "note": "[Tenofovir, tenofovir, reference compound]", "values": [{"measurement": "Accumulation in OAT1 transporter expressing cells", "setting": "human OAT1; [2]", "value": 372.67, "unit": "cpm"}, {"measurement": "Accumulation in control cells", "setting": "human OAT1; [2]", "value": 77.00, "unit": "cpm"}, {"measurement": "Accumulation, active transport", "setting": "human OAT1; [2]", "value": 295.67, "unit": "cpm"}, {"measurement": "Fold accumulation", "setting": "human OAT1; [2]", "value": 4.84}, {"measurement": "Accumulation in OAT1 transporter expressing cells", "setting": "human OAT1; [3]", "value": 7739.67, "unit": "cpm"}, {"measurement": "Accumulation in control cells", "setting": "human OAT1; [3]", "value": 85.00, "unit": "cpm"}, {"measurement": "Accumulation, active transport", "setting": "human OAT1; [3]", "value": 7654.67, "unit": "cpm"}, {"measurement": "Fold accumulation", "setting": "human OAT1; [3]", "value": 91.05}]}
{"smiles": "Nc1nc2c(ncn2[C@@H]2O[C@@H]3COP(=O)(O)O[C@H]3[C@H]2O)c(=O)[nH]1", "note": "[cGMP, guanosine 3′,5′-cyclic monophosphate, reference compound]", "values": [{"measurement": "Accumulation in OAT2v1 transporter expressing cells", "setting": "human OAT2v1; [4]", "value": 551.67, "unit": "cpm"}, {"measurement": "Accumulation in control cells", "setting": "human OAT2v1; [4]", "value": 67.67, "unit": "cpm"}, {"measurement": "Accumulation, active transport", "setting": "human OAT2v1; [4]", "value": 484.00, "unit": "cpm"}, {"measurement": "Fold accumulation", "setting": "human OAT2v1; [4]", "value": 8.15}, {"measurement": "Accumulation in OAT2v1 transporter expressing cells", "setting": "human OAT2v1; positive control: cGMP 1.82 µM", "value": 9207.33, "unit": "cpm"}, {"measurement": "Accumulation in control cells", "setting": "human OAT2v1; positive control: cGMP 1.82 µM", "value": 75.00, "unit": "cpm"}, {"measurement": "Accumulation, active transport", "setting": "human OAT2v1; positive control: cGMP 1.82 µM", "value": 9132.33, "unit": "cpm"}, {"measurement": "Fold accumulation", "setting": "human OAT2v1; positive control: cGMP 1.82 µM", "value": 122.76}]}
